Here are results for 1 compound from paper PMC10702189, “Tetrazine Glycoconjugate for Pretargeted Positron Emission Tomography Imaging of trans-Cyclooctene-Functionalized Molecular Spherical Nucleic Acids” (ACS Omega, 2023).

The nature of data set [1]: Radioactivity distribution in blood components after i.v. injection in healthy mice. The following applies: for Proportion of intact tracer in plasma: radio-HPLC. It counts as in vivo. On the procedure:
To measure the radioactivity binding to blood cells, the blood obtained by cardiac puncture was placed into a lithium heparin tube, mixed according to the manufacturer’s instructions, and placed on ice. The blood sample was centrifuged at 4 °C for 5 min at 2118 × g. The plasma was separated by pipetting, and blood cells and plasma radioactivities were measured with a 1480 Wizard gamma counter (PerkinElmer/Wallac, Turku, Finland).
To determine the radioactivity portion bound to plasma proteins, plasma was mixed with an equal volume of acetonitrile and centrifuged at 14000 × g for 2 min at r.t. The radioactivity of both the supernatant and the protein pellet was measured with Wizard.
To determine the portion of intact tracer in plasma, a sample of deproteinized plasma supernatant was diluted with 0.1% TFA in water and analyzed with radio-HPLC.[60]

The nature of data set [2]: In vivo dynamic PET/CT imaging in healthy Balb/cAnNrj mice. Conditions: dynamic PET. On the procedure: (§1) Animal studies were approved by the national Project Authorization Board in Finland (licenses: ESAVI/12132/04.10.07/2017 and ESAVI/8648/2020) and were carried out in compliance with EU Directive 2010/EU/63 on the protection of animals used for scientific purposes. Healthy female Balb/cAnNrj mice (9–14 weeks old, 19 weeks old for fasting studies) were used for experiments with [^18F]FDG-Tz. Female Rj:Athymic-Foxn1^nu/nu mice (8–10 weeks old) bearing subcutaneous HER2-expressing HCC1954 tumors were used for pretargeted and control preclicked experiments with [^18F]TCO-MSNA, detailed information for the mice preparation was described earlier.[59] Animals were housed in individually ventilated cages under a 12 h light/dark cycle with ad libitum access to water and food unless otherwise stated. Animals were anesthetized with isoflurane (induction 4–5%, maintenance 1.5–2.5%, 0.4 L/min O2) and sacrificed by cervical dislocation after applying cardiac puncture for blood collection.
For in vivo [^18F]FDG-Tz studies, four mice were injected with 4.0–4.8 MBq in 50–80 μL volume via the tail vein. Animals were imaged with Molecubes β-cube (PET) and X-cube (CT) (MOLECUBES NV, Ghent, Belgium) for 60 min and reconstructed into time frames 30 × 10, 15 × 60, 4 × 300 s, and 2 × 600 s. For pretargeted experiments as well as control imaging with preclicked [^18F]TCO-MSNA, Inveon Multimodality PET/CT (Siemens Medical Solutions, Knoxville, TN, USA) was used to perform dynamic PET with 6 × 10, 4 × 60, and 11 × 300 s time frames. For pretargeted imaging, TCO-MSNA (50 μL, 2.5 nmol of TCO) was injected 20 min prior to [^18F]FDG-Tz (63 ± 17 μL) administration via the tail vein. For all experiments two animals were imaged at the same time under isoflurane anesthesia. Mice were sacrificed immediately after imaging for ex vivo evaluation.
Image analysis was performed with Carimas software (version 2.10, Turku PET Centre, Turku, Finland). CT scans were utilized as an anatomical reference combined with the radioactivity signal from PET images. Regions of interest (ROIs) within the selected organs were defined in three dimensions. Blood pool results were obtained from the heart left ventricle cavity; tumor ROIs were drawn excluding the fluid-filled tumor core (Figure S13). Standardized uptake values (SUV) were calculated, corrected with the remaining radioactivity in the cannula, tail, and syringe, and decay-corrected to the time of injection.

In data set [3] the test system is HER2-expressing HCC1954 tumors. Briefly: PET/CT imaging (pretargeted, preclicked, tracer alone) in HCC1954 tumor-bearing mice. In kind it is in vivo. The following applies: HCC1954 tumor-bearing female mice, 60 min postinjection. On the procedure:
as §1, with “collection. […]” for “collection.”
Image analysis was performed with Carimas software (version 2.10, Turku PET Centre, Turku, Finland). CT scans were utilized as an anatomical reference combined with the radioactivity signal from PET images. […] Standardized uptake values (SUV) were calculated, corrected with the remaining radioactivity in the cannula, tail, and syringe, and decay-corrected to the time of injection. […]

A short description of data set [4]: Ex vivo biodistribution in healthy Balb/cAnNrj mice. On the procedure: as §1
For [^18F]FDG-Tz ex vivo evaluation, the mice were sacrificed at 15 (n = 6), 30 (n = 4), and 60 min (n = 2) postinjection. [^18F]FDG-Tz distribution at 15 min postinjection was also studied in animals after fasting (n = 3, 4 h fasting prior to injection, water available ad libitum). Radiolabeled compound was administrated via the tail vein (1.8–11.4 MBq in 50–170 μL). For all experiments involving MSNA ex vivo measurements were performed after 60 min PET/CT imaging.
After sacrifice, tissue samples from organs of interest were dissected and weighed. Radioactivity was measured with a gamma counter (Triathler 3″; Hidex, Turku, Finland); the percentage injected radioactivity dose per gram of tissue (%ID/g) was calculated, corrected with the remaining radioactivity in the cannula, tail, and the syringe and decay-corrected to the time of injection.

Consider `O=C(CCON=C[C@H]([18F])[C@@H](O)[C@H](O)[C@H](O)CO)NCc1ccc(-c2nncnn2)cc1` [[^18F]FDG-Tz], for which, in data set [1] (15 min postinjection), the “Blood cell binding of radioactivity” value is listed as 37.6% ± 3.0 and the “Plasma protein binding of radioactivity” value was 9.1% ± 3.5. Also, in data set [1] (60 min postinjection), the “Blood cell binding of radioactivity” value was found to be 58.1%, the “Plasma protein binding of radioactivity” value stood at 22.7% and the “Proportion of intact tracer in plasma” value is 52%. In addition, the “Proportion of intact tracer in plasma” value in data set [1] (first time point (15 min, n = 3)) was 93.7% ± 5.1. The “Heart SUV” value in data set [2] (0.6 min) was found to be 5.06 ± 4.25 SUV. In data set [2] (0.8 min), the “Blood SUV” value was 5.26 ± 2.69 SUV and the “Brain SUVpeak” value was found to be 0.33 ± 0.20 SUV. Further, the “Liver SUV” value in data set [2] (4.5 min) was found to be 5.63 ± 1.11 SUV. Further, in data set [2] (60 min), the “Blood SUV” value turned out to be 0.43 ± 0.06 SUV, the “Brain SUV” value amounted to 0.05 ± 0.01 SUV, the “Heart SUV” value came to 0.41 ± 0.05 SUV and the “Liver SUV” value turned out to be 2.00 ± 0.57 SUV. In addition, the “Tumor SUV” value in data set [3] is on record as 0.16 ± 0.04 SUV. Also, the “Biodistribution difference between fasted and nonfasted animals” value in data set [4] (15 min postinjection, 4 h fasting) was “no statistically significant difference”. Moreover, the “Organ accumulation in awake versus isoflurane anesthetized animals” value in data set [4] (60 min after i.v. injection) was “trend of lower accumulation”. Moreover, in data set [4] (i.v., 60 min postinjection), the Blood radioactivity is 0.9 ± 0.3 %ID/g, the Brain uptake was found to be 0.08 ± 0.03 %ID/g, the Gallbladder radioactivity came to 7.0 ± 0.7 %ID/g and the Kidneys radioactivity is 1.2 ± 0.4 %ID/g. Besides, in data set [4] (i.v., 60 min postinjection), the Liver radioactivity is given as 3.2 ± 1.0 %ID/g and the “Tibia bone radioactivity (defluorination)” value is reported as 0.26 ± 0.04 %ID/g.
